Test results: patent publication US20260176320A1, “MODULATORS OF G-PROTEIN COUPLED RECEPTORS” (priority 2018, published 2026)
Read-outs that look alike come from different tables or passages of the source.

How the values were obtained:
GIP-R = molecular target: T1, GIP-R (Homo sapiens, UniProt P48546); assay: HitHunter cAMP assay (GIP-R); assay type: cell-based; conditions: cAMP; for Emax: read-out: (Emax) GIP-R
T1 sequence (P48546 22-466): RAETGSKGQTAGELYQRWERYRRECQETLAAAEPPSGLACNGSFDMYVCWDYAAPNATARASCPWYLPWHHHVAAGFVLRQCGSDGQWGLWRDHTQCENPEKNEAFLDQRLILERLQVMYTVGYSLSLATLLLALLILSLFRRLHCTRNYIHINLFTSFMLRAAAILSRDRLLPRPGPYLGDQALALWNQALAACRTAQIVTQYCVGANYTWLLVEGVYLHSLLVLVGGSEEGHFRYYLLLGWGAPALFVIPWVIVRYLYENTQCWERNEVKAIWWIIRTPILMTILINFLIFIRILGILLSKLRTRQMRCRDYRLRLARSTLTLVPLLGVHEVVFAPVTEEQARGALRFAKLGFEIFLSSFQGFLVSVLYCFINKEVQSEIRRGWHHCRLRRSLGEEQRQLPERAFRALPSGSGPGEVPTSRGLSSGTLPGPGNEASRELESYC
Method in brief: (§1)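 Suspension cells (10,000/well) in HBSS with 10 mM HEPES, 625 μM IBMX, 0.2% BSA exposed to 22-point 2-fold agonist series in duplicate for 30 min at room temperature. cAMP measured by antibody immunocompetition with overnight development, luminescence read-out.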

GLP-1R = GLP-1R (Homo sapiens, UniProt P43220); assay: HitHunter cAMP assay (GLP-1R); assay type: cell-based; conditions: cAMP; for Emax: read-out: (Emax) GLP-1R
GLP-1R, sequence (P43220 24-463): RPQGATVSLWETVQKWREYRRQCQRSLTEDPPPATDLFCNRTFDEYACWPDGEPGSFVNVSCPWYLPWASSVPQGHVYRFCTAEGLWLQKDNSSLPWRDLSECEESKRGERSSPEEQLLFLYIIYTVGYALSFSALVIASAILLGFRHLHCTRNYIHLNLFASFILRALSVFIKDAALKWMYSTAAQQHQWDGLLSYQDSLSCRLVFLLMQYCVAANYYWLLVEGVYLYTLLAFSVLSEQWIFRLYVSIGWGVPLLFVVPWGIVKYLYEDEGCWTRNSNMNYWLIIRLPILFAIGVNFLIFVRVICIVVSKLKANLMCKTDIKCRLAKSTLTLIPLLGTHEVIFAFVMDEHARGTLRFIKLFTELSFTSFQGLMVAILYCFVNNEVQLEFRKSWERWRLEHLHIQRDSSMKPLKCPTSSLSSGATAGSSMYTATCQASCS
Method in brief: as §1

[1] = Table 3, read-out: EC50 GIP-R/nM
[2] = Table 3A, read-out: EC50 GIP-R/nM
[3] = Table 3, read-out: EC50 GLP-1R/nM
[4] = Table 3A, read-out: EC50 GLP-1R/nM

| Compound | Emax (GIP-R; Table 3) [%] | Emax (GIP-R; Table 3A) [%] | Emax (GLP-1R; Table 3) [%] | Emax (GLP-1R; Table 3A) [%] | EC50 (GIP-R; [1]) [nM] | EC50 (GIP-R; [2]) [nM] | EC50 (GLP-1R; [3]) [nM] | EC50 (GLP-1R; [4]) [nM] | EC50 (GIP-R; EC50 GIP-R/nM, Table 3) [nM] | EC50 (GIP-R; EC50 GIP-R/nM, Table 3A) [nM] | EC50 (GLP-1R; EC50 GLP-1R/nM, Table 3) [nM] | EC50 (GLP-1R; EC50 GLP-1R/nM, Table 3A) [nM] |
| --- | --- | --- | --- | --- | --- | --- | --- | --- | --- | --- | --- | --- |
| CCCCCCCCCCCCCCCC(=O)N[C@@H](CCC(=O)NCCCC[C@H](NC(=O)[C@H](CO)NC(=O)[C@@H]1CCCN1C(=O)[C@@H]1CCCN1C(=O)[C@@H]1CCCN1C(=O)[C@H](C)NC(=O)CNC(=O)[C@H](CO)NC(=O)[C@H](CO)NC(=O)[C@@H]1CCCN1C(=O)CNC(=O)CNC(=O)[C@H](C)NC(=O)[C@H](CC(C)C)NC(=O)[C@H](CC(C)C)NC(=O)[C@H](Cc1c[nH]c2ccccc12)NC(=O)[C@H](CC(N)=O)NC(=O)[C@@H](NC(=O)[C@H](Cc1ccccc1)NC(=O)[C@H](CCC(=O)O)NC(=O)C(C)(C)NC(=O)[C@H](C)NC(=O)[C@H](C)NC(=O)[C@H](CCC(N)=O)NC(=O)[C@H](CCCCN)NC(=O)[C@H](CC(=O)O)NC(=O)[C@H](CC(C)C)NC(=O)[C@H](Cc1ccc(O)cc1)NC(=O)[C@@H](NC(=O)[C@H](CO)NC(=O)[C@H](Cc1ccc(O)cc1)NC(=O)[C@H](CC(=O)O)NC(=O)[C@H](CO)NC(=O)[C@@H](NC(=O)[C@H](Cc1ccccc1)NC(=O)[C@@H](NC(=O)CNC(=O)[C@H](CCC(=O)O)NC(=O)CSCC(=O)NCCN1C(=O)CC[C@@H]1C)[C@@H](C)O)[C@@H](C)O)[C@@H](C)CC)C(C)C)C(N)=O)C(=O)O (single isomer, unassigned) [Compound 75] | 39 | 39 | 99 | 99 |  |  |  |  |  |  |  |  |
| CCCCCCCCCCCCCCCC(=O)N[C@@H](CCC(=O)NCCCC[C@H](NC(=O)[C@H](CO)NC(=O)[C@@H]1CCCN1C(=O)[C@@H]1CCCN1C(=O)[C@@H]1CCCN1C(=O)[C@H](C)NC(=O)CNC(=O)[C@H](CO)NC(=O)[C@H](CO)NC(=O)[C@@H]1CCCN1C(=O)CNC(=O)CNC(=O)[C@H](C)NC(=O)[C@H](CC(C)C)NC(=O)[C@H](CC(C)C)NC(=O)[C@H](Cc1c[nH]c2ccccc12)NC(=O)[C@H](CC(N)=O)NC(=O)[C@@H](NC(=O)[C@H](Cc1ccccc1)NC(=O)[C@H](CCC(=O)O)NC(=O)C(C)(C)NC(=O)[C@H](C)NC(=O)[C@H](C)NC(=O)[C@H](CCC(N)=O)NC(=O)[C@H](CCCCN)NC(=O)[C@H](CC(=O)O)NC(=O)[C@H](CC(C)C)NC(=O)[C@H](Cc1ccc(O)cc1)NC(=O)[C@@H](NC(=O)[C@H](CO)NC(=O)[C@H](Cc1ccc(O)cc1)NC(=O)[C@H](CC(=O)O)NC(=O)[C@H](CO)NC(=O)[C@@H](NC(=O)[C@H](Cc1ccccc1)NC(=O)[C@@H](NC(=O)CNC(=O)[C@H](CCC(=O)O)NC(=O)CSCC(=O)NCCN1C[C@@H](O)CC1=O)[C@@H](C)O)[C@@H](C)O)[C@@H](C)CC)C(C)C)C(N)=O)C(=O)O [Compound 45] | 42 | 42 | 100 | 100 | 1 to 10 | 1 to 10 | 0.1 to 1 | 0.1 to 1 |  |  |  |  |
| CCCCCCCCCCCCCCCC(=O)N[C@@H](CCC(=O)NCCCC[C@H](NC(=O)[C@H](CO)NC(=O)[C@@H]1CCCN1C(=O)[C@@H]1CCCN1C(=O)[C@@H]1CCCN1C(=O)[C@H](C)NC(=O)CNC(=O)[C@H](CO)NC(=O)[C@H](CO)NC(=O)[C@@H]1CCCN1C(=O)CNC(=O)CNC(=O)[C@H](C)NC(=O)[C@H](CC(C)C)NC(=O)[C@H](CC(C)C)NC(=O)[C@H](Cc1c[nH]c2ccccc12)NC(=O)[C@H](CC(N)=O)NC(=O)[C@@H](NC(=O)[C@H](Cc1ccccc1)NC(=O)[C@H](CCC(=O)O)NC(=O)C(C)(C)NC(=O)[C@H](C)NC(=O)[C@H](C)NC(=O)[C@H](CCC(N)=O)NC(=O)[C@H](CCCCN)NC(=O)[C@H](CC(=O)O)NC(=O)[C@H](CC(C)C)NC(=O)[C@H](Cc1ccc(O)cc1)NC(=O)[C@@H](NC(=O)[C@H](CO)NC(=O)[C@H](Cc1ccc(O)cc1)NC(=O)[C@H](CC(=O)O)NC(=O)[C@H](CO)NC(=O)[C@@H](NC(=O)[C@H](Cc1ccccc1)NC(=O)[C@@H](NC(=O)CNC(=O)[C@H](CCC(=O)O)NC(=O)CSCC(=O)NCCN1CC(=O)N(C)C1=O)[C@@H](C)O)[C@@H](C)O)[C@@H](C)CC)C(C)C)C(N)=O)C(=O)O [Compound 46] | 46 | 46 | 100 | 100 | 1 to 10 | 1 to 10 | 1 to 10 | 1 to 10 |  |  |  |  |
| CCCCCCCCCCCCCCCC(=O)N[C@@H](CCC(=O)NCCCC[C@H](NC(=O)[C@H](CO)NC(=O)[C@@H]1CCCN1C(=O)[C@@H]1CCCN1C(=O)[C@@H]1CCCN1C(=O)[C@H](C)NC(=O)CNC(=O)[C@H](CO)NC(=O)[C@H](CO)NC(=O)[C@@H]1CCCN1C(=O)CNC(=O)CNC(=O)[C@H](C)NC(=O)[C@H](CC(C)C)NC(=O)[C@H](CC(C)C)NC(=O)[C@H](Cc1c[nH]c2ccccc12)NC(=O)[C@H](CC(N)=O)NC(=O)[C@@H](NC(=O)[C@H](Cc1ccccc1)NC(=O)[C@H](CCC(=O)O)NC(=O)C(C)(C)NC(=O)[C@H](C)NC(=O)[C@H](C)NC(=O)[C@H](CCC(N)=O)NC(=O)[C@H](CCCCN)NC(=O)[C@H](CC(=O)O)NC(=O)[C@H](CC(C)C)NC(=O)[C@H](Cc1ccc(O)cc1)NC(=O)[C@@H](NC(=O)[C@H](CO)NC(=O)[C@H](Cc1ccc(O)cc1)NC(=O)[C@H](CC(=O)O)NC(=O)[C@H](CO)NC(=O)[C@@H](NC(=O)[C@H](Cc1ccccc1)NC(=O)[C@@H](NC(=O)CNC(=O)[C@H](CCC(=O)O)NC(=O)CSCC(=O)NCCN1CC[C@@H](O)C1=O)[C@@H](C)O)[C@@H](C)O)[C@@H](C)CC)C(C)C)C(N)=O)C(=O)O [Compound 47] | 24 | 24 | 100 | 100 | 1 to 10 | 10 to 100 | < 0.1 | < 0.1 |  |  |  |  |
| CCCCCCCCCCCCCCCC(=O)N[C@@H](CCC(=O)NCCCC[C@H](NC(=O)[C@H](CO)NC(=O)[C@@H]1CCCN1C(=O)[C@@H]1CCCN1C(=O)[C@@H]1CCCN1C(=O)[C@H](C)NC(=O)CNC(=O)[C@H](CO)NC(=O)[C@H](CO)NC(=O)[C@@H]1CCCN1C(=O)CNC(=O)CNC(=O)[C@H](C)NC(=O)[C@H](CC(C)C)NC(=O)[C@H](CC(C)C)NC(=O)[C@H](Cc1c[nH]c2ccccc12)NC(=O)[C@H](CC(N)=O)NC(=O)[C@@H](NC(=O)[C@H](Cc1ccccc1)NC(=O)[C@H](CCC(=O)O)NC(=O)C(C)(C)NC(=O)[C@H](C)NC(=O)[C@H](C)NC(=O)[C@H](CCC(N)=O)NC(=O)[C@H](CCCCN)NC(=O)[C@H](CC(=O)O)NC(=O)[C@H](CC(C)C)NC(=O)[C@H](Cc1ccc(O)cc1)NC(=O)[C@@H](NC(=O)[C@H](CO)NC(=O)[C@H](Cc1ccc(O)cc1)NC(=O)[C@H](CC(=O)O)NC(=O)[C@H](CO)NC(=O)[C@@H](NC(=O)[C@H](Cc1ccccc1)NC(=O)[C@@H](NC(=O)CNC(=O)[C@H](CCC(=O)O)NC(=O)CSCC(=O)NCCN1C(=O)C[C@@H](OC)C1=O)[C@@H](C)O)[C@@H](C)O)[C@@H](C)CC)C(C)C)C(N)=O)C(=O)O [Compound 48] | 65 | 65 | 104 | 104 |  |  |  |  | 0.1 to 1 | 0.1 to 1 | 0.1 to 1 | 0.1 to 1 |
| CCCCCCCCCCCCCCCC(=O)N[C@@H](CCC(=O)NCCCC[C@H](NC(=O)[C@H](CO)NC(=O)[C@@H]1CCCN1C(=O)[C@@H]1CCCN1C(=O)[C@@H]1CCCN1C(=O)[C@H](C)NC(=O)CNC(=O)[C@H](CO)NC(=O)[C@H](CO)NC(=O)[C@@H]1CCCN1C(=O)CNC(=O)CNC(=O)[C@H](C)NC(=O)[C@H](CC(C)C)NC(=O)[C@H](CC(C)C)NC(=O)[C@H](Cc1c[nH]c2ccccc12)NC(=O)[C@H](CC(N)=O)NC(=O)[C@@H](NC(=O)[C@H](Cc1ccccc1)NC(=O)[C@H](CCC(=O)O)NC(=O)C(C)(C)NC(=O)[C@H](C)NC(=O)[C@H](C)NC(=O)[C@H](CCC(N)=O)NC(=O)[C@H](CCCCN)NC(=O)[C@H](CC(=O)O)NC(=O)[C@H](CC(C)C)NC(=O)[C@H](Cc1ccc(O)cc1)NC(=O)[C@@H](NC(=O)[C@H](CO)NC(=O)[C@H](Cc1ccc(O)cc1)NC(=O)[C@H](CC(=O)O)NC(=O)[C@H](CO)NC(=O)[C@@H](NC(=O)[C@H](Cc1ccccc1)NC(=O)[C@@H](NC(=O)CNC(=O)[C@H](CCC(=O)O)NC(=O)CSCC(=O)NCCN1C(=O)C[C@H](OC)C1=O)[C@@H](C)O)[C@@H](C)O)[C@@H](C)CC)C(C)C)C(N)=O)C(=O)O [Compound 49] | 48 | 48 | 101 | 101 |  |  |  |  | 0.1 to 1 | 0.1 to 1 | 0.1 to 1 | 0.1 to 1 |
